What was measured:
giant foxtail = experiment: Test A pre-/postemergence greenhouse test; type: in vivo, Setaria faberi; conditions: for Plant response rating, Foxtail, Giant: 0 to 100 scale where 0 is no effect and 100 is complete control; for Foxtail, Giant plant response rating: 0 to 100 scale
How it was run: (§1)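 Planting was into mixed loam soil and sand; preemergence treatment followed as a directed soil spray. Concurrently, emerged plants (one- to two-leaf, 2–10 cm) received postemergence applications of identically formulated compound (non-phytotoxic solvent, surfactant). After approximately ten days under greenhouse conditions, injury was judged by eye against untreated plants.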

barnyardgrass = experiment: Test C flooded paddy test; type: in vivo, Echinochloa crus-galli; conditions: Flood
How it was run: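 Under a constant 3 cm flood, test compounds went directly into the paddy water. Following 13 to 15 days of greenhouse growth, treated species and controls were compared by eye.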

wheat = experiment: Test C pre-/postemergence test; type: in vivo, Triticum aestivum; conditions: for Plant response rating, Wheat: 31 g ai/ha, scale 0 to 100 (0 no effect, 100 complete control)
How it was run: (§2)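 Seeds were planted and treated preemergence with test chemical in a non-phytotoxic solvent mixture containing surfactant. Postemergence applications of the same formulation went onto plants 2 to 18 cm tall (1- to 4-leaf stage). A dash marks no test result.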

common ragweed = experiment: Test C pre-/postemergence test; type: in vivo, Ambrosia elation; conditions: for Plant response rating, Ragweed: 31 g ai/ha, scale 0 to 100 (0 no effect, 100 complete control)
How it was run: as §2

Russian thistle = experiment: Test C pre-/postemergence test; type: in vivo, Salsola kali; conditions: for Plant response rating, Russian Thistle: 31 g ai/ha, scale 0 to 100 (0 no effect, 100 complete control)
Text: Seeds of plant species selected from blackgrass (Alopecurus myosuroides), downy brome (Bromus tectorum), green foxtail (Setaria viridis), Italian ryegrass (Lolium multiflorum), wheat (Triticum aestivum), wild oat (Avena fatua), catchweed bedstraw (Galium aparine), Russian thistle (Salsola kali), […] (Cynodon dactylon), Surinam grass (Brachiaria decumbens), cocklebur (Xanthium strumarium), corn (Zea mays), crabgrass (Digitaria sanguinalis), woolly cupgrass (Eriochloa villosa), giant foxtail (Setaria faberii), Goosegrass (Eleusin indica), johnsongrass (Sorghum halepense), kochia (Kochia scoparia), lambsquarters (Chenopodium album), morningglory (Ipomoea coccinea), eastern black nightshade (Solanum ptycanthum), yellow nutsedge (Cyperus esculentus), pigweed (Amaranthus retroflexus), common ragweed (Ambrosia elation), soybean (Glycine max), common (oilseed) sunflower (Helianthus annuus), and velvetleaf (Abutilon theophrasti) were planted and treated preemergence with test chemicals formulated in a non-phytotoxic solvent mixture which included a surfactant. At the same time, plants selected from these crop and weed species and also winter barley (Hordeum vulgare), canarygrass (Phalaris minor), and chickweed (Stellaria media) were treated with postemergence applications of some of the test chemicals formulated in the same manner. Plants ranged in height from 2 to 18 cm (1- to 4-leaf stage) for postemergence treatments. […] At time of treatment, test pots were flooded to 3 cm above the soil surface, treated by application of test compounds directly to the paddy water, and then maintained at that water depth for the duration of the test. […] A dash (-) response means no test result.

velvetleaf = experiment: Test A pre-/postemergence greenhouse test; type: in vivo, Abutilon theophrasti; conditions: for Plant response rating, Velvetleaf: 0 to 100 scale where 0 is no effect and 100 is complete control; for Velvetleaf plant response rating: 0 to 100 scale
How it was run: as §1

[1] = Postemergence, 500 g ai/ha, 0 is no effect, 100 is complete control
[2] = Preemergence, 125 g ai/ha, 0 no effect, 100 complete control
[3] = 62 g ai/ha, scale 0 to 100, 0 no effect, 100 complete control, 13 to 15 days
[4] = 250 g ai/ha, scale 0 to 100, 0 no effect, 100 complete control, 13 to 15 days
[5] = 62 g ai/ha, Preemergence, scale 0 to 100
[6] = 125 g ai/ha, preemergence, scale 0 (no effect) to 100 (complete control)
[7] = preemergence, 250 g ai/ha, scale 0 (no effect) to 100 (complete control)
[8] = 62 g ai/ha, scale 0 to 100 (0 no effect, 100 complete control)
[9] = Preemergence, 500 g ai/ha, 0 no effect, 100 complete control

Row | SMILES | Plant response rating, Foxtail, Giant (giant foxtail; Postemergence, 125 g ai/ha) | Foxtail, Giant plant response rating (giant foxtail; [1]) | Foxtail, Giant plant response rating (giant foxtail; [2]) | Plant response rating, Foxtail, Giant (giant foxtail; Preemergence, 500 g ai/ha) | Plant response rating, Barnyardgrass (barnyardgrass; [4]) | Wheat plant response rating (wheat; [5]) | Wheat plant response rating (wheat; [6]) | Plant response rating, Wheat (wheat; Preemergence) | Wheat plant response rating (wheat; [7]) | Ragweed plant response rating (common ragweed; [5]) | Ragweed plant response rating (common ragweed; [6]) | Plant response rating, Ragweed (common ragweed; Preemergence) | Ragweed plant response rating (common ragweed; [7]) | Russian Thistle plant response rating (Russian thistle; [5]) | Russian Thistle plant response rating (Russian thistle; [6]) | Russian Thistle plant response rating (Russian thistle; [7]) | Plant response rating, Velvetleaf (velvetleaf; Postemergence, 125 g ai/ha) | Velvetleaf plant response rating (velvetleaf; [1]) | Velvetleaf plant response rating (velvetleaf; [2]) | Plant response rating, Russian Thistle (Russian thistle; Preemergence) | other results
1 | CC(c1c(C(F)(F)F)nn(CC(F)(F)F)c1Cl)[S+]([O-])c1cccc[n+]1[O-] (centres unmarked) [Compound 46] | 70 | 80 | 90 | 100 | 60 | 100 | 100 | 100 | 100 | 0 | 5 | 0 | 60 | 0 | 100 | 100 | 30 | 40 | 0 | – | Plant response rating, Barnyardgrass (barnyardgrass; [3]): 10; Plant response rating, Velvetleaf (velvetleaf; Preemergence, 500 g ai/ha): 50
2 | Cc1cc[n+]([O-])c(S(=O)(=O)Cc2c(C(F)(F)F)nn(C)c2OCC(F)F)c1 [Compound 94] | 50 | 80 | 100 | 100 | 0 | 60 | 80 | 30 | 80 | 100 | 100 | 60 | 100 | 100 | 100 | 100 | 10 | 70 | 10 | 100 | Plant response rating, Barnyardgrass (barnyardgrass; [8]): 0; Velvetleaf plant response rating (velvetleaf; [9]): 100
3 | C#CCOc1c(CS(=O)(=O)c2cccc[n+]2[O-])c(C(F)(F)F)nn1C [Compound 103] | 80 | 90 | 80 | – | 0 | 0 | 25 | 0 | 98 | 0 | 80 | 0 | 85 | 100 | 100 | 100 | 40 | 70 | 20 | 100 | Foxtail, Giant plant response rating (giant foxtail; [9]): 100; Plant response rating, Barnyardgrass (barnyardgrass; [8]): 0; Velvetleaf plant response rating (velvetleaf; [9]): 80
4 | Cn1nc(C(F)(F)C(F)(F)F)c(C[S+]([O-])c2ccc(Cl)c[n+]2[O-])c1OCC(F)(F)F (centres unmarked) [Compound 92] | 80 | 90 | 90 | 100 | 75 | 65 | 90 | 35 | 95 | 85 | 100 | – | 100 | 100 | 100 | 100 | 50 | 90 | 30 | 100 | Plant response rating, Barnyardgrass (barnyardgrass; [8]): 0; Velvetleaf plant response rating (velvetleaf; [9]): 100
5 | Cc1cc[n+]([O-])c(S(=O)(=O)Cc2c(C(F)(F)C(F)(F)F)nn(C)c2OCC(F)(F)F)c1 [Compound 99] | 70 | 80 | 90 | – | 20 | 55 | 55 | 25 | 95 | 100 | 100 | – | 100 | 100 | 100 | 100 | 30 | 60 | 20 | 100 | Foxtail, Giant plant response rating (giant foxtail; [9]): 100; Plant response rating, Barnyardgrass (barnyardgrass; [8]): 0; Velvetleaf plant response rating (velvetleaf; [9]): 100
6 | Cn1nc(C(F)(F)F)c(C(Cl)S(=O)(=O)c2cccc[n+]2[O-])c1OC(F)F (centres unmarked) [Compound 51] | 50 | 90 | 100 | 100 | 50 | 10 | 20 | 5 | – | 0 | 30 | 0 | 85 | 100 | 100 | 100 | 60 | 70 | 60 | 40 | Plant response rating, Barnyardgrass (barnyardgrass; [3]): 0; Plant response rating, Velvetleaf (velvetleaf; Preemergence, 500 g ai/ha): 70

— patent US20100298141A1, “SUBSTITUTED PYRIDINE N-OXIDE HERBICIDES” (E. I. DU PONT DE NEMOURS AND COMPANY, priority 2007, published 2010)
